pIC50: −log10 of the molar value.
Biological target: Probable G-protein coupled receptor 34 (Homo sapiens, UniProt Q9UPC5)
Assay: Antagonist activity against human lung GPR34 expressed in CHO cells co-expressing Galpha116 assessed as inhibition of lysophosphatidyl serine-induced increase in intracellular calcium level pre-incubated before lysophosphatidyl serine addition and measured after 180 secs by Fluo 3-AM dye based fluorescent assay
Type: functional, cell-based

Sequence of Probable G-protein coupled receptor 34 (Q9UPC5 whole entry): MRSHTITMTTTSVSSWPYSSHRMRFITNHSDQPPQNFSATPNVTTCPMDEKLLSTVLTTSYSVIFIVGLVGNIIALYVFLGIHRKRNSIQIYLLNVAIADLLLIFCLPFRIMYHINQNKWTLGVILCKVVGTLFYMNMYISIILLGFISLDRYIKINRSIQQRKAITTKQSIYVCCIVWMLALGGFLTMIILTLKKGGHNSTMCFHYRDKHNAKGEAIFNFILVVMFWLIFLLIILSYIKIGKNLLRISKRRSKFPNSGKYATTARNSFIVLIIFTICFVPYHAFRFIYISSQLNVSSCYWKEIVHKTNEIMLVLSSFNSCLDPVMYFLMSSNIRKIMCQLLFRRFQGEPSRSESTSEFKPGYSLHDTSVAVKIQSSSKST

SMILES | pIC50
O=C(Cc1ccc(Oc2ccccc2)cc1)NC1(C(=O)O)Cc2ccc(-c3ccc(Cl)cc3)cc2C1 (centres undefined) | ≥ 6.00
O=C(O)C1(NS(=O)(=O)Cc2ccc(F)cc2)Cc2ccc(-c3ccc(Cl)cc3)cc2C1 (centres undefined) | ≥ 6.00
O=C(Cc1ccc(Oc2nc3ccccc3s2)cc1)NC1(C(=O)O)Cc2ccc(-c3ccc(Cl)cc3)cc2C1 (centres undefined) | ≥ 6.00
Cc1ccc(COc2ccc(CC(NC(=O)c3cc4ccc(-c5ccc(Cl)cc5)cc4o3)C(=O)O)cc2)cc1 (centres undefined) | ≥ 6.00
O=C(O)CN(Cc1ccc(OCc2ccc(F)cc2)cc1)C(=O)c1cn2cc(-c3ccc(Cl)cc3)ccc2n1 | ≥ 6.00
O=C(Cc1ccc(OCc2ccc(F)cc2)cc1)NC1(C(=O)O)Cc2ccc(-c3ccccc3Cl)cc2C1 (centres undefined) | ≥ 6.00
O=C(NC(Cc1ccc(OCc2ccccc2F)cc1)C(=O)O)c1cn2cc(-c3ccc(Cl)cc3)ccc2n1 (centres undefined) | ≥ 6.00
Cc1c(C(=O)N[C@@H](Cc2ccc(OCc3ccoc3)cc2)C(=O)O)oc2cc(-c3ccc(Cl)cc3)ccc12 | ≥ 6.00
O=C(NC(Cc1ccc(OCc2ccc(F)cc2)cc1)C(=O)O)c1nc2cc(-c3ccc(Cl)cc3)ccc2[nH]1 (centres undefined) | ≥ 6.00
O=C(NC(Cc1ccc(OCc2cccc(F)c2)cc1)C(=O)O)c1cn2cc(-c3ccc(Cl)cc3)ccc2n1 (centres undefined) | ≥ 6.00
O=C(NC(Cc1ccc(OCc2ccc(F)cc2)cc1)C(=O)O)c1cn2ccc(C#Cc3ccccc3)cc2n1 (centres undefined) | ≥ 6.00
Nc1ccccc1COc1ccc(CC(=O)NC2(C(=O)O)Cc3ccc(-c4ccc(Cl)cc4)cc3C2)cc1 (centres undefined) | ≥ 6.00
O=C(Cc1ccc(OC2Cc3ccccc3C2)cc1)NC1(C(=O)O)Cc2ccc(-c3ccc(Cl)cc3)cc2C1 (centres undefined) | ≥ 6.00
O=C(N[C@@H](Cc1ccc(OCc2ccsc2)cc1)C(=O)O)c1cn2cc(-c3ccc(Cl)cc3)ccc2n1 | ≥ 6.00
O=C(NC(Cc1ccc(OCc2ccccc2)cc1)c1nnn[nH]1)c1cn2nc(-c3ccc(Cl)cc3)ccc2n1 (centres undefined) | ≥ 6.00
Nc1c(C(=O)NC(Cc2ccc(OCc3ccccc3)cc2)C(=O)O)oc2ccc(-c3ccc(Cl)cc3)cc12 (centres undefined) | ≥ 6.00
O=C(NC(Cc1ccc(OCc2ccccc2)cc1)c1nnn[nH]1)c1cn2cc(-c3ccc(Cl)cc3)ccc2n1 (centres undefined) | ≥ 6.00
O=C(Cc1ccc(OCc2ccc(F)cc2)cc1)NC1(C(=O)O)Cc2ccc(-c3ccc(Cl)s3)cc2C1 (centres undefined) | ≥ 6.00
O=C(NC(Cc1ccc(OCc2ccc(F)cc2)cc1)C(=O)O)c1cn2cc(-c3ccc(Cl)cc3)ccc2n1 (centres undefined) | ≥ 6.00
Cc1c(C(=O)N[C@@H](Cc2ccc(OCc3ccsc3)cc2)C(=O)O)oc2cc(-c3ccc(Cl)cc3)ccc12 | ≥ 6.00
Cc1c(C(=O)N[C@H](C(=O)O)c2ccc(OCc3ccccc3)cc2)oc2cc(-c3ccc(Cl)cc3)ccc12 | ≥ 6.00
Nc1cccc(COc2ccc(CC(=O)NC3(C(=O)O)Cc4ccc(-c5ccc(Cl)cc5)cc4C3)cc2)c1 (centres undefined) | ≥ 6.00
O=C(Cc1ccc(OCc2ccsc2)cc1)NC1(C(=O)O)Cc2ccc(-c3ccc(Cl)cc3)cc2C1 (centres undefined) | ≥ 6.00
Cc1c(C(=O)N[C@@H](Cc2ccc(OCc3ccccc3)cc2)C(=O)O)oc2cc(-c3ccc(Cl)cc3)ccc12 | ≥ 6.00
O=C(N[C@@H](Cc1ccc(OCc2ccccc2)cc1)C(=O)O)c1cn2ccc(-c3ccc(Cl)cc3)cc2n1 | ≥ 6.00
O=C(Cc1ccc(OCc2ccc(F)cc2)cc1)NC1(C(=O)O)Cc2ccc(-c3cccc(Cl)c3)cc2C1 (centres undefined) | ≥ 6.00
O=C(Cc1ccc(OCc2ccc(F)cc2)cc1)NC1(C(=O)O)Cc2ccc(-c3ccc(Cl)cc3)cc2C1 (centres undefined) | ≥ 6.00
O=C(Cc1ccc(OCc2ccccc2)cc1)NC1(C(=O)O)Cc2ccc(-c3ccc(Cl)cc3)cc2C1 (centres undefined) | ≥ 6.00
O=C(NC(Cc1ccc(OCc2ccccc2)cc1)C(=O)O)c1cn2cc(CCc3ccccc3)ccc2n1 (centres undefined) | ≥ 6.00

Reference: ChEMBL document CHEMBL3714719, “Regulating agent of GPR34 receptor function” (2010)
